Reference: patent US6410560B1, “Drug for relieving pain and promoting the removal of calculi in urolithiasis” (Kissei Pharmaceutical Co., Ltd., priority 1995, dated 2002)

Test system: human ureteral smooth muscle
Assay: Relaxation of 40 mM KCl-induced contraction of isolated human ureteral smooth muscle strips
Assay type: cell-based
Settings: for ureteral relaxing effect: 40 mM KCl-induced tonic contraction, 10^−6 M phentolamine present, FIG. 1
Protocol: Measurement of the contractile force of the ureteral smooth muscle strip (1) Preparation of smooth muscle strips Specimens of human ureter were obtained from patients undergoing nephrectomy or total cystectomy. After the specimens were carefully dissected free from the surrounding fat tissues, they were cut into spiral strips. The ureteral strips of about 20 mm in length and 5 mm in width were prepared. (2) Experimental conditions Buffer solution; Locke's-solution No.2: NaCl (154 mM), KCl (5.6 mM), CaCl2 (2.1 mM), NaHCO3 (5.6 mM) and glucose (3.6 mM) Ureteral muscle strips without any spontaneous rhythmic contractions were used. An initial resting tension of about 1.0 g was placed. The actions of drugs against the 40 mM KCl-induced tonic contraction were evaluated in the presence of 10^−6 M phentolamine. […] The evaluation of drugs; The drug-induced relaxation was expressed as a percentage of the maximal relaxing response to 10^−5 M of isoproterenol. The ureteral tension before the treatment is indicated as 100%, and the tension after treatment of 10^−5 M of isoproterenol which produces maximal ureteral relaxation is indicated as 0%. According to the methods described above, the ureteral relaxing effects of the drug were measured using the human ureteral smooth muscle strips. According to the method described above, the interaction between a β-adrenoceptor stimulant and a β-adrenoceptor blocker was evaluated in human ureteral smooth muscle strips using the following drugs.

SMILES | ureteral relaxing effect | blocking of isoproterenol-induced ureteral relaxation (40 mM KCl contraction, ICI-118,551 100 nM pre-treatment, FIG. 2) | relaxation produced by isoproterenol in the presence of ICI-118,551 (40 mM KCl contraction, pre-treatment with 100 nM ICI-118,551, relative to maximal relaxation by 10^−5 M isoproterenol alone, FIG. 2)
CC(C)(C)NCC(O)COc1cccc2[nH]c(=O)[nH]c12.Cl (racemic) [CGP-12,177A, (±)-4-[3-[(1,1-dimethylethyl)amino]-2-hydroxypropoxy]-1,3-dihydro-2H-benzimidazol-2-one hydrochloride] | produced apparent ureteral relaxation |  | 
Cc1ccc(OCC(O)C(C)NC(C)C)c2c1CCC2.Cl (racemic) [ICI-118,551, (±)-1-[(2,3-dihydro-7-methyl-1H-inden-4-yl)oxy]-3-[(1-methylethyl)amino]-2-butanol hydrochloride] |  | attenuated the isoproterenol-induced ureteral relaxation, but did not completely block | 
CC(C)NCC(O)c1ccc(O)c(O)c1 (centres unmarked) [isoproterenol] | showed a more potent relaxing effect |  | about 50%
CCC(NC(C)C)C(O)c1ccc(O)c2[nH]c(=O)ccc12 (centres unmarked) [procaterol] | produced apparent ureteral relaxation |  | 
